In PubChem BioAssay (NCI):
Values joined by “and” are separate entries in the source; they are usually repeats but may differ in a detail not shown here. Equal values may be shown once.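 Briefly, cells in 96-well plates were exposed to five compound concentrations for 48 h, and endpoints were estimated by linear interpolation. GI50 is the concentration that inhibits growth by half. TGI denotes the concentration required for complete inhibition of growth.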

What was measured:
Experiment in all cases: NCI tumour cell line growth inhibition, 48 h
[1] = test system: CCRF-CEM leukemia
[2] = test system: SW-620 colon
[3] = test system: SF-268 CNS
[4] = test system: OVCAR-5 ovarian
[5] = test system: A498 renal
[6] = test system: K-562 leukemia
[7] = test system: TK-10 renal
[8] = test system: OVCAR-4 ovarian
[9] = test system: UACC-257 melanoma
[10] = test system: SNB-19 CNS

SMILES | TGI [1] [µM] | TGI [2] | TGI [3] [µM] | TGI [4] [µM] | TGI [5] | TGI [6] [µM] | TGI [7] | TGI [8] | TGI [9] [µM] | TGI [10] [µM] | GI50 [1] | GI50 [3] [µM] | GI50 [4] [µM] | GI50 [5] [µM] | GI50 [7] [µM] | GI50 [8] [µM] | GI50 [10] | GI50 [6] [µM] | GI50 [9] [µM] | GI50 [2] [µM]
CCCC[C@H]1C(=O)O[C@H](C)[C@H](NC(=O)c2cccc(NC=O)c2OC)C(=O)O[C@@H](C)[C@@H]1OC(=O)CC(C)C (tested in a mixture with another compound) | 24.4 | 64.3 µM | 38.5 | 51.6 | 22.4 µM | 58 | 30.7 µM | 21.1 µM | 38.6 | 22.3 |  |  |  |  |  |  |  |  |  | 
O=c1c(-c2ccccc2)c(SCCN2CCOCC2)n(-c2ccccc2)c(=S)n1-c1ccccc1 | > 100 | > 100 µM |  | > 100 | > 100 µM | > 100 | > 100 µM | > 100 µM | > 100 |  |  |  |  |  |  |  |  |  |  | 
Cc1ccc(C(=O)Nc2ncn(C3CC(O)C(CO)O3)c(=O)n2)cc1 (configuration not stated) | > 100 | > 100 µM | > 100 | > 100 | > 100 µM | > 100 |  | > 100 µM | > 100 | > 100 |  |  |  |  |  |  |  |  |  | 
C=C1CC2C3C=C(C)C4=CC(=O)CC[C@]4(C)C3CC[C@]2(C)[C@@]1(OC(C)=O)C(C)=O (some centres not stated) | > 100 |  | > 100 | > 100 | > 100 µM |  | > 100 µM | > 100 µM |  | > 100 | 2.11 µM | 5.46 | > 100 | > 100 | > 100 | 2.91 | > 100 µM |  |  | 
Cc1cc2c(cc1Cl)SC(c1ccccc1O)NS2(=O)=O (configuration not stated) | 26.3 | 42.5 µM | > 100 | > 100 | > 100 µM | > 100 | > 100 µM | > 100 µM | > 100 | > 100 |  |  |  |  |  |  |  |  |  | 
C[C@H]1CCC/C=C/[C@@H]2C[C@H](O)C[C@H]2[C@H](O)/C=C/C(=O)O1 | 5.53 | 0.0856 µM and 0.118 µM and 0.124 µM | > 63.3 |  | 0.0821 µM and 0.0376 µM |  | 2.57 µM and 0.362 µM and 1 µM | 5.62 µM and > 49.1 µM |  | > 100 | < 0.0183 µM and 0.0501 µM and 0.0981 µM | < 0.0103 | 0.0857 | < 0.0149 |  | 0.0312 | 0.0308 µM and 0.134 µM and 0.215 µM | 0.236 | 0.0132 | 
CCCCCCCCCCCCCCCCCC(=O)OCC1OC(OC)C(NC(=O)N(CCCl)N=O)C(O)C1O (configuration not stated) |  | 47.8 µM | 26.7 | > 100 |  | > 100 | > 100 µM | 76.1 µM | 39.4 | > 100 |  |  |  |  |  |  |  |  |  | 
CCOC(=O)C12CC(C)=C(C)CC1CCCc1ccccc12 (configuration not stated) | 41.6 | 51.8 µM | > 100 | 50.9 | 62.7 µM | 78.2 | 77.8 µM | > 100 µM | 46.2 | 83 |  |  |  |  |  |  |  |  |  | 
COc1ccc(N=Cc2ccc(N(CCC#N)S(=O)(=O)c3ccccc3)cc2C)cc1 | > 100 | > 100 µM | > 100 | > 100 |  | > 100 | 87.6 µM | > 100 µM | > 100 | > 100 |  |  |  |  |  |  |  |  |  | 
COc1cc(/C=C2\N=C(c3ccccc3)N(c3nc4ccc(Sc5ccccc5)cc4[nH]3)C2=O)cc(OC)c1OC | > 100 | > 100 µM | > 100 | > 100 | 71.8 µM | 48.1 | 57.4 µM | > 100 µM | 45.6 | > 100 |  |  |  |  |  |  |  |  |  | 
CCOC(=O)/C(=C\NC(C)(C)CO)c1nc2ccccc2[nH]1 | > 100 | > 100 µM | > 100 | > 100 | > 100 µM | > 100 | > 100 µM | > 100 µM | > 100 | > 100 |  |  |  |  |  |  |  |  |  | 
O=c1[nH]c2cc([N+](=O)[O-])c(N/N=C/c3ccc(Cl)cc3Cl)c([N+](=O)[O-])c2[nH]1 | > 100 | > 100 µM | > 100 | > 100 | 48.7 µM | > 100 | > 100 µM | 94.6 µM | > 100 | > 100 |  |  |  |  |  |  |  |  |  | 
O=C([CH-]C(=O)c1ccccc1)c1ccccc1.O=C([CH-]C(=O)c1ccccc1)c1ccccc1.O=C([CH-]C(=O)c1ccccc1)c1ccccc1.[Cl-].[Hf+4] |  | > 100 µM | > 100 | > 100 | 63 µM | > 100 | 53.8 µM | > 100 µM | 69.5 | > 100 |  | 26.4 | 30.8 | 18.6 | 18.7 | 14.6 | 14.1 µM | 7.11 | 22.2 | 10.8
CC(C)(C)c1cc(-c2nc3ccc(N4CCN(CCO)CC4)cc3[nH]2)cc(C(C)(C)C)c1O |  |  |  |  | > 100 µM |  | > 100 µM |  |  | > 100 |  |  |  | 6.1 | 4.69 |  | 3.48 µM |  |  | 
